These results are taken from patent US5789431A, “Naphthoquinone antitumor compound and method” (The University of North Carolina at Chapel Hill, priority 1996, dated 1998).

The subject of data set [1] is MALME-3M. Nature of the data set: in vitro melanoma cell growth inhibition (NCI screen).
Data set [2] concerns M14. The description is as above.
In data set [3] the test system is UACC-257. The description is as above.
Data set [4] relates to UACC-62. The description is as above.
The subject of data set [5] is CCRF-CEM. The data set is described as follows: in vitro leukemia cell growth inhibition (NCI screen).
The subject of data set [6] is HL-60(TB). The description is as above.
For data set [7], the system named is RPMI-8226. The description is as above.
Data set [8] relates to COLO-205. Nature of the data set: in vitro colon cancer cell growth inhibition (NCI screen).
Data set [9] has as its system HCT-116. The description is as above.
For data set [10], the system named is HCT-15. The data set is described as above.
Data set [11] deals with OVCAR-3. Nature of the data set: in vitro ovarian cancer cell growth inhibition (NCI screen).
In data set [12] the test system is MCF-7. Nature of the data set: in vitro breast cancer cell growth inhibition (NCI screen).
The subject of data set [13] is MDA-MB-435. The description is as above.
The test system of data set [14] is MDA-N. The description is as above.
Data set [15] has as its system BT-549. The data set is described as above.
Data set [16] concerns HOP-92. Nature of the data set: in vitro non-small cell lung cancer cell growth inhibition (NCI screen).
The subject of data set [17] is NCI-H23. Described as above.
Data set [18] deals with NCI-H522. The data set is described as above.
Data set [19] has as its system human tumor cell lines. The data set is classed as cell-based.
The test system of data set [20] is SK-MEL-28. Nature of the data set: in vitro melanoma cell growth inhibition (NCI screen).
In data set [21] the test system is SK-MEL-5. Described as above.
The test system of data set [22] is K-562. The data set is described as follows: in vitro leukemia cell growth inhibition (NCI screen).
Data set [23] relates to U 251. The data set is described as follows: in vitro CNS cancer cell growth inhibition (NCI screen).
Data set [24] concerns KM 12. Nature of the data set: in vitro colon cancer cell growth inhibition (NCI screen).
For data set [25], the system named is SW 620. The description is as above.
For data set [26], the system named is ACHN. Nature of the data set: in vitro renal cancer cell growth inhibition (NCI screen).
Data set [27] concerns RXF-393. Described as above.
In data set [28] the test system is MCF7/ADR-RES. The data set is described as follows: in vitro breast cancer cell growth inhibition (NCI screen).
For data set [29], the system named is T-47D. The description is as above.
The subject of data set [30] is PC-3. The data set is described as follows: in vitro prostate cancer cell growth inhibition (NCI screen).
Data set [31] concerns NCI-H266. Nature of the data set: in vitro non-small cell lung cancer cell growth inhibition (NCI screen).
For data set [32], the system named is SR. The data set is described as follows: in vitro leukemia cell growth inhibition (NCI screen).
Data set [33] has as its system IGROV1. The data set is described as follows: in vitro ovarian cancer cell growth inhibition (NCI screen).

For the compound `COc1ccc(-n2c(CCCC(=O)O)nc3c2C(=O)c2ccccc2C3=O)cc1` [Compound 59], the “cytotoxicity log GI50” value in data set [1] was -4.82 M; in data set [2], -4.81 M; in data set [3], -4.56 M; in data set [4], -4.63 M; in [5], -4.44 M; in data set [6], -4.51 M. For the same compound, the “cytotoxicity log GI50” value is given as -4.44 M in data set [7]; -4.43 M in data set [8]; -4.44 M in data set [9]; -4.35 M in data set [10]; -4.48 M in [11]; -4.49 M in data set [12]. Moreover, the “cytotoxicity log GI50” value in [13] was -4.58 M; in data set [14], -4.50 M; in [15], -5.06 M; in data set [16], -4.69 M; in data set [17], -4.36 M; in data set [18] it was -4.59 M.

As to `COc1ccc(C(=O)NC2=C(Cl)C(=O)c3ccccc3C2=O)cc1` [Compound 2g], the GI50 in data set [19] (Homo sapiens, cancer cell panel, general / most cell lines, read-out: logGI50 values in the cancer cell line panel (converted)) was approximately 1 µM. The “cytotoxicity log GI50” value in [1] is -5.92 M; in data set [2], -6.20 M; in [20], -6.17 M; in [21], -5.89 M; in [3] it was -5.79 M; in [4] it was -6.12 M. The “cytotoxicity log GI50” value in [5] is given as -6.10 M; in data set [6], -6.35 M; in data set [22], -5.85 M; in [7], -6.02 M; in [23] it was -5.83 M; in data set [8], -5.76 M. The “cytotoxicity log GI50” value is recorded as -6.36 M in [9]; -6.37 M in data set [10]; -5.82 M in data set [24]; -6.17 M in data set [25]; -6.44 M in data set [26]; -6.23 M in [27]. The “cytotoxicity log GI50” value in data set [11] is reported as -5.79 M; in [28] it was -5.85 M; in [15], -5.77 M; in data set [29] it was -5.90 M; in data set [30] it was -5.90 M; in [16] it was -5.82 M. Moreover, the “cytotoxicity log GI50” value in [31] was -5.87 M; in [18], -6.42 M.

Consider `COc1cc(OC)cc(C(=O)NC2=C(Cl)C(=O)c3ccccc3C2=O)c1` [Compound 2h], for which, in [19] (cancer cell line panel), the “cytotoxicity against tumor cells (in words)” value is reported as “similarly potent cytotoxic activity”. Also, the “cytotoxicity log GI50” value in data set [2] is -6.26 M; in [20], -5.85 M; in data set [21] it was -5.89 M; in [4], -6.82 M; in data set [5], -6.70 M; in data set [6] it was -7.04 M. Besides, the “cytotoxicity log GI50” value is -6.39 M in [22]; -6.31 M in [7]; -6.33 M in data set [32]; -6.35 M in data set [9]; -6.38 M in data set [10]; -5.92 M in data set [24]. For the same compound, the “cytotoxicity log GI50” value in [25] was -6.24 M; in data set [26] it was -6.39 M; in [27] it was -6.28 M; in data set [33], -5.86 M; in data set [28] it was -5.83 M; in [15] it was -5.81 M. For the same compound, the “cytotoxicity log GI50” value in [29] is recorded as -5.85 M; in data set [30] it was -6.24 M; in [18], -6.49 M.
